Assay results published in patent publication US10028902B2, “Nuclear localization of GLP-1 stimulates myocardial regeneration and reverses heart failure” (BAYLOR RESEARCH INSTITUTE, priority 2013, dated 2018).

Key:
[1] = tested on: FoxO1; test: FOXO1 inhibitor injection in rats with ADM cardiomyopathy; type: in vivo, rat; details: total dose 24 mg/kg ip
Procedure: Animal protocol-4: Specific FOXO1 inhibitor (AS1842856, a small molecular compound from Millipore) was injected into rats with ADM cardiomyopathy to investigate if FOXO1 mediates ADM cardiomyopathy. There were 3 groups of rats as follows: (1) normal control rats, n=6; (2) ADM injection only group at total dose of 15 mg/kg/ip, 2.5 mg/kg/ip 6 times over 2 weeks, (n=6); (3) ADM at total dose of 15 mg/kg/ip, 2.5 mg/kg/ip 6 times over 2 weeks plus FOXO1 inhibitor injection (at total dose of 24 mg/kg/ip, 4 mg/kg/ip 6 times over 2 weeks (n=6). All rats were killed 4 weeks after ADM injection.
(§1) Echocardiographic measurements of LV fractional shortening and LV posterior wall thickness were made from digital images acquired with a 12 MHz broadband transducer (S12 probe, Philips Ultrasound, Bothell, Wash.). Fractional shortening was evaluated from the following formula: FS=(LVIDd−LVIDs)/LVIDd×100.

[2] = tested on: rat hearts with adriamycin cardiomyopathy; test: Adriamycin cardiomyopathy in rats: gross pathology, Masson's trichrome staining, echocardiography; type: in vivo
Procedure: (§2) Animal protocol-2: A total of 60 rats were divided into: (1) no treatment (normal control rats, n=12); (2) adriamycin (ADM)^38 injection only, at total dose of 15 mg/kg/ip, 2.5 mg/kg/ip 6 times over 2 weeks, n=12. (3) ADM plus GLP-1 peptide injection, at GLP-1 peptide fragment 7-37 human (dose of 50 nmol/kg/ip/time×6, N=12, from Sigma, St Louis, Mo.), (4) ADM injection plus UTMD-GLP1 peptide delivery (same dose of GLP-1 peptide fragment 7-37 human mixed with microbubble for UTMD), n=12; (5) ADM injection plus UTMD with pXL-BASII-CI-GLP-1/pCI-hyPB, n=12. Half rats were killed at 16 hours after last ADM injection; other half rats were killed at 4 weeks after UTMD. The thymidine analog, 5-bromo-2-deoxyuridine (BrdU) (100 mg/kg) was injected intraperitoneally 6 hours prior to euthanasia.
Animal protocol-3: UTMD was performed after established adriamycin cardiomyopathy defined as a fractional shortening <30% by echocardiography. There were 3 groups of rats as follows: (1) normal control rats, n=6; (2) UTMD with pXL-BASII-CI-DsRed/pCI-hyPB (n=6); (3) UTMD with pXL-BASII-CI-GLP-1/pCI-hyPB (n=12). All rats were killed 4 weeks after UTMD. The thymidine analog, 5-bromo-2-deoxyuridine (BrdU) (100 mg/kg) was injected intraperitoneally 6 hours prior to euthanasia.
Piggybac transposon donor plasmids and helper plasmids ratio (pXL-BASII-CI-GLP-1/pCI-hyPB) was 5:1. Microbubble or control solutions (0.5 ml diluted with 0.5 ml phosphate-buffered solution (PBS)) were infused over 5 min via pump (Genie, Kent Scientific, Torrington, Conn.). During the infusion, ultrasound was directed to the heart using a commercially available ultrasound transducer (S3, Sonos 5500, Philips Ultrasound, Bothell, Wash.). […]
as §1

[3] = intravenous infusions, patients with myocardial infarction or chronic heart failure; cited from earlier work
[4] = tested on: Topoisomerase IIβ; test: Myocardial nuclear topoisomerase IIβ expression (western blot, qRT-PCR); type: in vivo, rat; details: ADM only or ADM plus UTMD-GLP-1NLS groups, P<0.001
Procedure: […] Half rats were killed at 16 hours after last ADM injection; other half rats were killed at 4 weeks after UTMD. The thymidine analog, 5-bromo-2-deoxyuridine (BrdU) (100 mg/kg) was injected intraperitoneally 6 hours prior to euthanasia.
Total RNA was isolated from 100 mg of harvested heart using the Trizol reagent (Invitrogen), according to the manufacturer's instructions and reverse-transcribed using Superscript III RT (Invitrogen). Real-time RT-qPCR analysis was performed on an ABI 7700 Sequence Detector (Applied Biosystems) using SYBR Green (RT2 SYBR Green qPCR Kit, Qiagen). Data were normalized to HKG expression (endogenous control). Changes in gene expression were normalized to control rat heart tissue. Complementary DNA PCR primer sequences information should be requested to the correspondence author.
(§3) Nuclear proteins extracts from cardiac tissue with a NE-PER Nuclear and Cytoplasmic Extraction Kit (Thermo Scientific, Rockford, Ill. 61105, USA). Protein concentrations were determined using the BCA-200 Protein Assay kit (Pierce); equal amounts of protein were separated by SDS-PAGE. […] Horseradish peroxidase secondary antibodies were used, and chemiluminescence was determined using the Super Signal West Dura detection system (Pierce); nuclear marker (lamin) was used to confirm equal loading. […]

[5] = tested on: HL-1 cardiac muscle cell line; test: Nuclear FoxO1 in HL-1 cardiac muscle cell line treated with adriamycin (immunofluorescent staining); type: cell-based; details: 0.25, 0.5, and 1.0 μM, 48 hrs, HL-1 cells
Procedure: The HL-1 cell line was a generous gift from Dr. William C. Claycomb^40 in Louisiana State University Medical Center, New Orleans, La. The cells were maintained in Claycomb basal medium (Sigma) supplemented with 10% fetal bovine serum, 0.1 mM norepinephrine and 2 mM L-glutamine. HL-1 cells were treated with adriamycin at 0 μM, 0.25 μM, 0.50 μM, or 1.00 μM for 48 hrs in complete growth medium, and were subjected to immunofluorescent staining.

[6] = tested on: FoxO1; test: Myocardial nuclear FoxO1 in adriamycin cardiomyopathy rats (western blot, qRT-PCR); type: in vivo, rat
Procedure: as §2, with “euthanasia. […]” for “euthanasia.”
as §3

In the case of `CCn1cc(C(=O)O)c(=O)c2c(N)c(F)c(NC3CCCCC3)cc21` [AS1842856], the “activation of myocardial nuclear FoxO1” value ([1]; ADM cardiomyopathy rats, FIG. 12) is reported as “able to block” and the “ADM cardiomyopathy (fractional shortening, LVPWd)” value ([1]; FIG. 12 panel A-B) is reported as “reverse”.

With “GLP-1 peptide fragment 7-37 human (HAEGTFTSDVSSYLEGQAAKEFIAWLVKGRG; Glucagon-like peptide 1(7-37); UniProt P01275 98-128, looked up) [GLP-1 peptide fragment 7-37 human from Sigma, injected ip]” the “LV mass and wall thickness in adriamycin cardiomyopathy after therapy” value ([2]; echocardiography, FIGS. 4 and 11) was “not”.

For “GLP-1 protein: GLP-1 protein given by intravenous infusion to patients in cited studies”, the “global LV function and the function of ischemic LV segments” value [3] is listed as “improved”.

With `COc1cccc2c1C(=O)c1c(O)c3c(c(O)c1C2=O)C[C@@](O)(C(=O)CO)C[C@@H]3O[C@H]1C[C@H](N)[C@H](O)[C@H](C)O1` [Adriamycin, adriamycin] the “TOP IIβ mRNA level in normal group, fold greater than in the treated group” value [4] was 18 fold, the “overexpression of nuclear FoxO1” value [5] was “significantly activates” and the “LV mass and wall thickness” value ([2]; echocardiography, adriamycin cardiomyopathy, total dose 15 mg/kg ip) was “decreased”. For the same compound, the “gross pathology of LV walls and cavities compared to normal controls” value ([2]; rats with adriamycin cardiomyopathy, FIG. 2 B, C) was “thin LV walls and dilated LV cavities”, the “FoxO1 mRNA level, fold relative to normal control or normal plus UTMD-GLP-1NLS groups” value ([6]; qRT-PCR, FIG. 6B, ADM only group, or ADM after UTMD GLP-1NLS gene delivery) was 12.6 fold and the “FoxO1 in cardiac nuclear protein extracts” value ([6]; western blots, FIG. 6A) was “significant increase”.
